Reference: patent US7795252B2, “Rapamycin analogues and the uses thereof in the treatment of neurological, proliferative, and inflammatory disorders” (Pfizer Inc., priority 2004, dated 2010)

Experiments:
[1] = system: Dissociated cortical neuron cultures; assay: cortical neuron assay (neurite outgrowth); assay type: cell-based; details: Cortical neurone, rat E15 cortical neurons, compound for 72 hours, read-out: EC50 in cortical neuron assays
Protocol: Dissociated cortical neuron cultures were prepared as previously described (Pong et al., 2001). Briefly, embryonic day 15 rat fetuses were collected and dissected in ice-cold PBS. Dissected cortices were pooled together and transferred to an enzymatic dissociation medium containing papain. After 30 minutes, the tissue was mechanically triturated with a fire-polished glass Pasteur pipette. Single-cell suspensions in complete media were seeded on poly-L-ornithine and laminin coated 96-well plates. After 24 hours, cultures were treated with various concentrations of compound for 72 hours. The cultures were then fixed and stained with an anti-tubulin primary antibody (TUJ-1) and a fluorescent-tagged secondary antibody. Neurite outgrowth was determined by using the Enhanced Neurite Outgrowth (ENO) algorithm with the Cellomics ArrayScan and expressed as average neurite length or total neurite length per cell.

[2] = system: Mesencephalic dopaminergic neuron cultures; assay: dopaminergic (3H-dopamine) uptake assay after MPP+ exposure; assay type: cell-based; details: Neuron, rat E15 mesencephalic dopaminergic neurons, read-out: EC50 in dopaminergic uptake assays
Protocol: Mesencephalic dopaminergic neuron cultures were prepared as described in Pong et al., J. Neurochem. 69: 986-994, 1997, which is incorporated herein by reference in its entirety. Embryonic day 15 (E15) rat fetuses were collected and dissected in ice-cold phosphate-buffered saline (PBS). The ventral piece of tissue compromising the mesencephalic dopaminergic region was dissected out. Dissected pieces of tissue were pooled together and transferred to an enzymatic dissociation medium containing 20 IU/mL papain in Earle's balanced salt solution (Worthington Biochemical, Freehold, N.J., USA) and incubated for 60 minutes at 37° C. After enzymatic dissociation, the papain solution was aspirated and the tissue mechanically triturated with a fire-polished glass Pasteur pipette in complete medium (equal volumes of minimum essential medium (MEM) and F-12 nutrient mixture (GibcoBRL) supplemented with 0.1 mg/mL apotransferrin and 2.5 μg/mL insulin) containing 2,000 IU/mL DNase and 10 mg/mL ovomucoid protease inhibitor.
For dopamine uptake experiments, single-cell suspensions in complete media were seeded on poly-L-ornithine and laminin coated 24-well plates. The cultures were maintained for seven days prior to experimentation. Cultures were pretreated with various concentrations of the compound for 24 hours, then exposed to 10 mM MPP+ for 1 hour. Following the 1 hour incubation, media was exchanged three times and fresh compound was added for an additional 48 hours.
After 48 hours growth of mesencephalic dopaminergic neuron cultures following MPP+ exposure, high-affinity 3H-dopamine uptake was performed using a modified method described by Prochiantz et al., Nature 293: 570-572, 1981, which is incorporated herein by reference. Cultures were washed with pre-warmed PBS containing 5.6 mM glucose and 1 mM ascorbic acid. Cultures were then incubated for 15 minutes at 37° C. with 50 nM 3H-dopamine (31 Ci/mmol, DuPont-NEN, Wilmington, Del., USA). The cultures were washed twice with buffer and lysed with 0.5 N NaOH. The lysate was transferred to a scintillation vial containing Ultima Gold scintillation cocktail and radioactivity was determined with a liquid scintillation counter. Alternatively, culture lysates can be washed twice with buffer, incubated for 2 hours at room temperature with Optiphase Supermix scintillation cocktail (Wallac Scintillation Products, Gaithersburg, Md., USA), and radioactivity measured with a liquid scintillation counter.

[3] = system: Spinal cord neuron cultures; assay: spinal cord neuron assay; assay type: cell-based; details: rat E15 spinal cord neurons, compound for 72 h, read-out: EC50 in spinal cord neuron assays
Protocol: Spinal cord neuron cultures were prepared from embryonic day 15 (E15) rat embryos (Sprague-Dawley, Charles River Laboratories, Wilmington, Mass.). The embryos were collected and their spinal cords were removed in ice-cold phosphate-buffered saline (PBS) without Ca^2+ and Mg^2+. Dissected pieces of spinal cord tissue were pooled together and transferred to an enzymatic dissociation media containing 20 IU/mL papain in Earle's balanced salt solution (Worthington Biochemical, Freehold, N.J.) and incubated for 30 minutes at 37° C. After enzymatic dissociation, the papain solution was aspirated and the tissue mechanically triturated with a fire-polished Pasteur pipette in complete media [Neurobasal Medium with B-27 supplement (Gibco, Grand Island, N.Y.), 100 IU/mL penicillin, 100 μg/mL streptomycin, 3.3 μg/mL aphidicolin, 0.5 mM glutamate] containing 2,000 IU/mL DNase and 10-mg/mL ovomucoid protease inhibitor. Single-cell suspensions in complete media were plated on pre-coated poly-L-ornithine/laminin 96-well plates (Becton-Dickinson, Bedford, Mass.) at a density of 1.0×10^4 cells/well. Spinal cord neurons were maintained for 24 h then exposed to vehicle or various concentrations of compound for 72 h.

[4] = system: human CD4+ T cells; assay: Anti-CD3/-CD28 stimulation and IL-2 re-stimulation assay; assay type: cell-based
Protocol: (§1) In the following assays, human CD4+ T cells were purified by negative selection from peripheral blood lymphocytes using RosetteSep as per manufacture's instructions (StemCell Technologies, Inc. Vancouver, British Columbia).
Tosyl-activated magnetic microspheres (Dynal, Great Neck, N.Y.) were coated with anti-CD3 Ab (1 μg/10^7 microspheres), and anti-CD28Ab (0.5 μg/10^7 microspheres) as described in Blair et al. J. Immunol., 160:12, 1998. Murine IgG was used to saturate the binding capacity of the microspheres (total protein=5 μg/10^7 microspheres). Protein-coated microspheres were added to purified CD4+ T cells (2×10^6 cells/mL, ratio 1 bead: 1 cell) and activated for 72 hours in RPMI, 10% fetal calf serum, 2 mM glutamine media. Cells were harvested, washed, and cultured overnight in fresh media and re-stimulated with IL-2 as described in Bennett et al., J. Immunol. 170:711, 2003. Briefly, overnight rested cells were recounted, plated (10^5 cells/well) in flat-bottomed 96 well microtiter plates and stimulated with 1 ng/mL human IL-2 (R&D Systems, Minneapolis, Minn.) in the presence of increasing concentrations of compound. Seventy-two hours after culture re-stimulation, plates were pulsed with 1 μCi/well tritiated thymidine and incubated for a 6-16 hour period.

[5] = system: human CD4+ T cells; assay: PMA/ionomycin activation assay; assay type: cell-based; details: CD4+ T cells stimulated with PMA and ionomycin, tritiated thymidine incorporation, read-out: EC50, inhibition of proliferation
Protocol: as §1
Proliferation of the compounds was determined using this assay. CD4+ T cells (5×10^5 cells/well) were plated in flat bottomed 96 well microtiter plates in RPMI, 10% fetal calf serum, 2 mM glutamine media and stimulated with PMA (10 ng/mL) and ionomycin (200 ng/mL) in the presence of increasing concentration of compound. Seventy-two hours after activation, 100 μL of culture media was collected for IL-2 determination, an additional 100 μL fresh media was added to each well and cultures labeled with tritiated thymidine (1 μCi/well) for 6 hours. Cultures were harvested and tritiated thymidine incorporation (count per minute, CPM) assessed using a Trilux (Perkin Elmer, Shelton, Conn.). IL-2 production was determined using an ELISA as per manufacture's instructions (R&D Systems, Minneapolis, Minn.).

[6] = system: breast tumor cell line MDA468 (PTEN-mutated); assay: cell-based proliferation assay (MTS), MDA468
Protocol: (§2) In this assay, a cell-based proliferation assay was performed to evaluate the compounds of the invention in inhibiting growth of cells including the breast tumor cell line MDA468 (PTEN-mutated) ATCC No. HTB-132 or prostate tumor cell line LNCap (PTEN-mutated) ATCC CRL-1740. • (i) On day one, cells were plated in 96-well culture plates. • (ii) On day two, compounds were added to cells at a predetermined concentration. • (iii) On day five, cell proliferation was measured by standard MTS assay protocol as described in S A O'Toole et al., Cancer Detection and Prevention, 27(1), 2003. Results were recorded by A490 absorbance using a 96-well format platereader. • (iv) The MTS results (A490 units) from compound-treated wells were then calculated as % control growth relative to the control (untreated) wells on the same culture plate.

[7] = system: prostate tumor cell line LNCap (PTEN-mutated); assay: cell-based proliferation assay (MTS), LNCap; details: Homo sapiens
Protocol: as §2

## CO[C@H]1C[C@@H]2CC[C@@H](C)[C@@](O)(O2)C(=O)C(=O)N2CCCC[C@H]2C(=O)O[C@H]([C@H](C)C[C@@H]2CC[C@@H](O)[C@H](OC)C2)CC(=O)[C@H](C)/C=C(\C)[C@@H](O)[C@@H](OC)C(=O)[C@H](C)C[C@H](C)[C@@H]2C=C[C@H](/C=C/1C)ON2c1ccccc1 [Example 1, 9,27-dihydroxy-3-{2-[4-hydroxy-3-methoxycyclohexyl]-1-methylethyl}-10,21-dimethoxy-6,8,12,14,20,26-hexamethyl-37-phenyl-4,9,10,12,13,14,15,18,21,22,23,24,25,26,27,32,33,34,34a-nonadecahydro-3H-23,27-epoxy-18,15-(epoxyimino)pyrido[2,1-c][1,4]oxazacyclohentriacontine-1,5,11,28,29(6H,31H)-pentone]
[1]
  EC50: < 1 µM
[2]
  EC50: < 1 µM
[3]
  EC50: < 1 µM
[4]; CD4+ T cells activated with anti-CD3/anti-CD28, re-stimulated with 1 ng/mL human IL-2, read-out: IC50, inhibition of IL-2 production
  IC50: < 1 µM
[4]; CD4+ T cells, IL-2 re-stimulation
  IL-2 production compared with rapamycin and CCI-779: commensurate
[5]
  EC50: 0.2 to 4.9 µM
[6]
  IC50: < 0.01 µM
[7]
  IC50: < 0.01 µM
